Experimental data as given in publication PMC5433425 (PeerJ, 2017).
Values joined by “and” are separate entries in the source; they are usually repeats but may differ in a detail not shown here. Identical values can stand only once. Like-named read-outs stand apart in the source and are kept apart here.

How the values were obtained:
[1] = system: E. coli K-12 AG100 (wild-type); assay: MIC, broth microdilution; type: cell-based; settings: Escherichia coli; E. coli AG100 wild-type; read-out: MIC
[2] = system: E. coli AG100A (AcrAB pump-deficient); assay: MIC, broth microdilution; type: cell-based, Escherichia coli; settings: Escherichia coli
[3] = system: E. coli AG100tet (AcrAB overexpressing); assay: MIC, broth microdilution; type: cell-based, Escherichia coli; settings: Escherichia coli
E. coli AG100A [4] = settings: EtBr […] + inhibitor 20 µM
E. coli AG100 = assay: EtBr efflux by real-time fluorometry; settings: AG100, AG100A and AG100tet (Fig. 2); 80 μM (20 μM for AG100A); glucose, 37 °C
Protocol: (§1) Control tubes with only cells and cells with and without 0.4% glucose were included. The fluorescence was measured in a Rotor-Gene 3000 and the data was acquired every 30 s for 30 min at 37 °C. The efflux activity was quantified by comparing the fluorescence data obtained under conditions that promote efflux (presence of glucose and absence of efflux inhibitor) with the data from the control in which the bacteria are under conditions of no efflux (presence of an inhibitor and no energy source).

E. coli AG100A [5] = assay: EtBr efflux by real-time fluorometry; settings: 20 µM
Protocol: as §1

## CN(C)CCCN1c2ccccc2Sc2ccc(Cl)cc21 [CPZ, chlorpromazine]
[1]
  MIC: 120 µg/mL and 338 µM
[2]
  MIC: 60 µg/mL and 169 µM
[3]
  MIC: 280 µg/mL and 788 µM
E. coli AG100A [4]; cycle 1
  EtBr fluorescence: 2.607
E. coli AG100A [4]; cycle 2
  EtBr fluorescence: 3.106
E. coli AG100A [4]; cycle 3
  EtBr fluorescence: 3.464
E. coli AG100A [4]; cycle 4
  EtBr fluorescence: 4.013
E. coli AG100A [4]; cycle 5
  EtBr fluorescence: 4.508
E. coli AG100A [4]; cycle 6
  EtBr fluorescence: 5.005
E. coli AG100A [4]; cycle 7
  EtBr fluorescence: 5.439
E. coli AG100A [4]; cycle 8
  EtBr fluorescence: 6.027
E. coli AG100A [4]; cycle 9
  EtBr fluorescence: 6.585
E. coli AG100A [4]; cycle 10
  EtBr fluorescence: 7.2591
E. coli AG100A [4]; cycle 11
  EtBr fluorescence: 7.711
E. coli AG100A [4]; cycle 12
  EtBr fluorescence: 8.1901
E. coli AG100A [4]; cycle 13
  EtBr fluorescence: 9.033
E. coli AG100A [4]; cycle 14
  EtBr fluorescence: 9.4255
E. coli AG100A [4]; cycle 15
  EtBr fluorescence: 10.1045
E. coli AG100A [4]; cycle 16
  EtBr fluorescence: 10.9436
E. coli AG100A [4]; cycle 17
  EtBr fluorescence: 11.4479
E. coli AG100A [4]; cycle 18
  EtBr fluorescence: 12.2134
E. coli AG100A [4]; cycle 19
  EtBr fluorescence: 12.6889
E. coli AG100A [4]; cycle 20
  EtBr fluorescence: 13.2115
E. coli AG100A [4]; cycle 21
  EtBr fluorescence: 13.9156
E. coli AG100A [4]; cycle 22
  EtBr fluorescence: 14.6607
E. coli AG100A [4]; cycle 23
  EtBr fluorescence: 15.4189
E. coli AG100A [4]; cycle 24
  EtBr fluorescence: 16.1017
E. coli AG100A [4]; cycle 25
  EtBr fluorescence: 16.6199
E. coli AG100A [4]; cycle 26
  EtBr fluorescence: 17.3366
E. coli AG100A [4]; cycle 27
  EtBr fluorescence: 18.2879
E. coli AG100A [4]; cycle 28
  EtBr fluorescence: 18.7671
E. coli AG100A [4]; cycle 29
  EtBr fluorescence: 19.416
E. coli AG100A [4]; cycle 30
  EtBr fluorescence: 19.8456
E. coli AG100
  inhibition of EtBr efflux: inhibited
E. coli AG100A [5]; cycle 1, + glucose
  EtBr fluorescence (Channel Cycling A.530/585hp): 3.827
E. coli AG100A [5]; cycle 1, without glucose
  EtBr fluorescence (Channel Cycling A.530/585hp): 4.231
E. coli AG100A [5]; cycle 2, + glucose
  EtBr fluorescence (Channel Cycling A.530/585hp): 3.676
E. coli AG100A [5]; cycle 2, without glucose
  EtBr fluorescence (Channel Cycling A.530/585hp): 4.204
E. coli AG100A [5]; cycle 3, + glucose
  EtBr fluorescence (Channel Cycling A.530/585hp): 3.648
E. coli AG100A [5]; cycle 3, without glucose
  EtBr fluorescence (Channel Cycling A.530/585hp): 4.237
E. coli AG100A [5]; cycle 4, without glucose
  EtBr fluorescence (Channel Cycling A.530/585hp): 4.314
E. coli AG100A [5]; cycle 5, without glucose
  EtBr fluorescence (Channel Cycling A.530/585hp): 4.267
E. coli AG100A [5]; cycle 6, without glucose
  EtBr fluorescence (Channel Cycling A.530/585hp): 4.36
E. coli AG100A [5]; cycle 7, without glucose
  EtBr fluorescence (Channel Cycling A.530/585hp): 4.4
E. coli AG100A [5]; cycle 8, without glucose
  EtBr fluorescence (Channel Cycling A.530/585hp): 4.486
E. coli AG100A [5]; cycle 9, + glucose
  EtBr fluorescence (Channel Cycling A.530/585hp): 3.606
E. coli AG100A [5]; cycle 9, without glucose
  EtBr fluorescence (Channel Cycling A.530/585hp): 4.551
E. coli AG100A [5]; cycle 10, + glucose
  EtBr fluorescence (Channel Cycling A.530/585hp): 3.712
E. coli AG100A [5]; cycle 10, without glucose
  EtBr fluorescence (Channel Cycling A.530/585hp): 4.522
E. coli AG100A [5]; cycle 11, + glucose
  EtBr fluorescence (Channel Cycling A.530/585hp): 3.667
E. coli AG100A [5]; cycle 11, without glucose
  EtBr fluorescence (Channel Cycling A.530/585hp): 4.614
E. coli AG100A [5]; cycle 12, + glucose
  EtBr fluorescence (Channel Cycling A.530/585hp): 3.687
E. coli AG100A [5]; cycle 12, without glucose
  EtBr fluorescence (Channel Cycling A.530/585hp): 4.652
E. coli AG100A [5]; cycle 13, + glucose
  EtBr fluorescence (Channel Cycling A.530/585hp): 3.761
E. coli AG100A [5]; cycle 13, without glucose
  EtBr fluorescence (Channel Cycling A.530/585hp): 4.775
E. coli AG100A [5]; cycle 14, + glucose
  EtBr fluorescence (Channel Cycling A.530/585hp): 3.711
E. coli AG100A [5]; cycle 14, without glucose
  EtBr fluorescence (Channel Cycling A.530/585hp): 4.879
E. coli AG100A [5]; cycle 15, + glucose
  EtBr fluorescence (Channel Cycling A.530/585hp): 3.685
E. coli AG100A [5]; cycle 15, without glucose
  EtBr fluorescence (Channel Cycling A.530/585hp): 4.89
E. coli AG100A [5]; cycle 16, + glucose
  EtBr fluorescence (Channel Cycling A.530/585hp): 3.729
E. coli AG100A [5]; cycle 16, without glucose
  EtBr fluorescence (Channel Cycling A.530/585hp): 4.933
E. coli AG100A [5]; cycle 17, + glucose
  EtBr fluorescence (Channel Cycling A.530/585hp): 3.749
E. coli AG100A [5]; cycle 17, without glucose
  EtBr fluorescence (Channel Cycling A.530/585hp): 4.963
E. coli AG100A [5]; cycle 18, + glucose
  EtBr fluorescence (Channel Cycling A.530/585hp): 3.817
E. coli AG100A [5]; cycle 18, without glucose
  EtBr fluorescence (Channel Cycling A.530/585hp): 5.023
E. coli AG100A [5]; cycle 19, + glucose
  EtBr fluorescence (Channel Cycling A.530/585hp): 3.768
E. coli AG100A [5]; cycle 19, without glucose
  EtBr fluorescence (Channel Cycling A.530/585hp): 5.067
